# Results: paper PMC12301304 (Frontiers in Pharmacology, 2025)
# Tests used:
# CYP2e1 = CYP2e1 (Rattus norvegicus, UniProt P05182); conditions: in vivo
# Experimental: The effect of the Zhicaowu–Hezi combination on CYP450 enzymes in rats was evaluated by examining the pharmacokinetics of theophylline (CYP1a2), metoprolol (CYP2d2), bupropion (CYP2b1), omeprazole (CYP2c13), chlorzoxazone (CYP2e1), testosterone (CYP3a1), and diclofenac (CYP2c11).
# The collected blood was placed in sodium heparin-treated centrifuge tubes and centrifuged at 4°C for 10 min at 3,000 RPM. […] After 10 min of sedimentation, the supernatant was extracted through a 0.22-μm microporous membrane, 20 μL of which was injected into HPLC. The pharmacokinetic parameters of each probe drug were calculated using the non-atrial compartment model in Drug and Statistics software (DAS, 3.0; Shanghai, China).
# CYP2c13 = target: T1, CYP2c13 (Rattus norvegicus, UniProt P20814); set-up: from tissue; host or cells: live male Sprague-Dawley rats (whole animal, mainly liver); conditions: in vivo
# T1 sequence (P20814 1-490): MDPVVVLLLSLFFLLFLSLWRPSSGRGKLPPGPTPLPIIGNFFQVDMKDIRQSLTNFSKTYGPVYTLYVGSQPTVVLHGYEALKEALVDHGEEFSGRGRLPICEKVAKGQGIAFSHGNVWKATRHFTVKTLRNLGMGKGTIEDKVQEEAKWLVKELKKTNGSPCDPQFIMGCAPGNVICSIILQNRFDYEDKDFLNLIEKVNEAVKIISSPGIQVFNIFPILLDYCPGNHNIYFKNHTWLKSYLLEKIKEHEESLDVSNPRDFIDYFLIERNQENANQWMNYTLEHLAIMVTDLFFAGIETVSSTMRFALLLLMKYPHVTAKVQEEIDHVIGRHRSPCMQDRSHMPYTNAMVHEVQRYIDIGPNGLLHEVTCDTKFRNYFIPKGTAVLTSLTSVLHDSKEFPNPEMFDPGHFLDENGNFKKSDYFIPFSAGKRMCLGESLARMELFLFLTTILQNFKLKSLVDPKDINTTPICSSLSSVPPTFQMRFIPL
# CYP2c11 = target: T2, CYP2c11 (Rattus norvegicus, UniProt P08683); set-up: from tissue; host or cells: live male Sprague-Dawley rats (whole animal, mainly liver); conditions: in vivo
# T2 sequence (P08683 1-500): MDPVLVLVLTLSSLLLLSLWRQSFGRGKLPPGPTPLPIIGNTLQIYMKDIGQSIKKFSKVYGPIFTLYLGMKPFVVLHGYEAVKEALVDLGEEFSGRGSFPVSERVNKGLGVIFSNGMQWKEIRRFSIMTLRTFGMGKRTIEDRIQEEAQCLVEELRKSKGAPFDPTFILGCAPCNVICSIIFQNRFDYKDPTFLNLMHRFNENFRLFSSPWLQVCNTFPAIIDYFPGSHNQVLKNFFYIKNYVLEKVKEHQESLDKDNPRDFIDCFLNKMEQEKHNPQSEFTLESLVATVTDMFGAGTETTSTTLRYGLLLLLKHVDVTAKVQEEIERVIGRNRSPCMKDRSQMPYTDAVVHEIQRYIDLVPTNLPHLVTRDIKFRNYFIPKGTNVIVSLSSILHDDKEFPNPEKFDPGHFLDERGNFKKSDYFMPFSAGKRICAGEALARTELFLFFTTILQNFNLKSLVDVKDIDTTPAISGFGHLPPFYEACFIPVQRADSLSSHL
# rat liver = format: in vivo; conditions: rats after final administration, H&E, Figure 7
# Experimental: After the final administration, all rats were euthanized, and blood and liver samples were collected. The levels of biochemical indicators ALT, AST and ALP in the blood were detected according to the kit instruction. The liver histopathology was analyzed by H&E staining. Briefly, liver tissues were fixed in 10% paraformaldehyde (for over 24 h, 4°C), paraffin-embedded, and sectioned into 5-µm slices). […]
# CYP1a2 = target: T3, CYP1a2 (Rattus norvegicus, UniProt P04799); set-up: from tissue; host or cells: live male Sprague-Dawley rats (whole animal, mainly liver); conditions: in vivo
# T3 sequence (P04799 1-513): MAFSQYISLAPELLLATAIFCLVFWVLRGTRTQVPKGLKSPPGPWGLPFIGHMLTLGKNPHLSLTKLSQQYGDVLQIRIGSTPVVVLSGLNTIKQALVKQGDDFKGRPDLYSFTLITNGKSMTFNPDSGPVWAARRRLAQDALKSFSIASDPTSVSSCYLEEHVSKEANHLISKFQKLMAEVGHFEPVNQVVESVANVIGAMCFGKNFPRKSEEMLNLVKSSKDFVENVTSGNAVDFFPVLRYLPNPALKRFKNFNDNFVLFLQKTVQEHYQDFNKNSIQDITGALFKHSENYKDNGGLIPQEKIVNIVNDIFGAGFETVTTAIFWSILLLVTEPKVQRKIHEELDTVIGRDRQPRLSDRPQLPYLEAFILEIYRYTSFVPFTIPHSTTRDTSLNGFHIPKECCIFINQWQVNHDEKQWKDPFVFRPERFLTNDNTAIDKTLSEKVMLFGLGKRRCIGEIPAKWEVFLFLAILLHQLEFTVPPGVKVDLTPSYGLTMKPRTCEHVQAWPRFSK
# Chain of CYP2e1 (P05182 whole entry): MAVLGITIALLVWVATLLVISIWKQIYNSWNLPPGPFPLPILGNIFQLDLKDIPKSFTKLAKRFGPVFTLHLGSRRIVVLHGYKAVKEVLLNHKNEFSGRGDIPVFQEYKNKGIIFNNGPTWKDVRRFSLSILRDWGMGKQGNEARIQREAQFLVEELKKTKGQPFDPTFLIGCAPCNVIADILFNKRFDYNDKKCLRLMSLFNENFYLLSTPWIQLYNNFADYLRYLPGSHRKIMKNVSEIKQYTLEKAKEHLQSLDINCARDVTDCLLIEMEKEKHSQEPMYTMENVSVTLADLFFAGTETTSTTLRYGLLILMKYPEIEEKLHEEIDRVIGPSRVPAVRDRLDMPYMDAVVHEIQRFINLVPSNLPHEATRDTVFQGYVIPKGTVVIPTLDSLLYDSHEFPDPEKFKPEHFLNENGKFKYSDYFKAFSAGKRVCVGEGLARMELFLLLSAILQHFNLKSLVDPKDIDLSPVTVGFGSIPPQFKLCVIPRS
smiles,measurement,setting,value
"CCC1(c2ccccc2)C(=O)NC(=O)NC1=O [P, phenobarbital sodium]",chlorzoxazone AUC(0-t),CYP2e1,32754 ± 4037 ng·h/mL
same,chlorzoxazone AUC(0-∞),CYP2e1,47632 ± 6051 ng·h/mL
same,chlorzoxazone CLz/F,CYP2e1,13.4061 ± 1.1103 mL/min/kg
same,chlorzoxazone Cmax,CYP2e1,3543 ± 431 ng/mL
same,chlorzoxazone t1/2 z,CYP2e1,13.368 ± 1.308 h
same,omeprazole AUC(0-t),CYP2c13,3040 ± 177 ng·h/mL
same,omeprazole AUC(0-∞),CYP2c13,3187 ± 239 ng·h/mL
same,omeprazole CLz/F,CYP2c13,"3,028.688 ± 253.193 mL/h/kg"
same,omeprazole Cmax,CYP2c13,535 ± 63 ng/mL
same,omeprazole t1/2 z,CYP2c13,2.761 ± 0.227 h
same,diclofenac AUC(0-t),CYP2c11,3978 ± 385 ng·h/mL
same,diclofenac AUC(0-∞),CYP2c11,4057 ± 343 ng·h/mL
same,diclofenac CLz/F,CYP2c11,"3,071.310 ± 519.261 mL/h/kg"
same,diclofenac Cmax,CYP2c11,735 ± 68 ng/mL
same,diclofenac t1/2 z,CYP2c11,3.342 ± 0.425 h
same,liver histopathology finding,rat liver,Scattered cellular edema
same,theophylline AUC(0-t),CYP1a2,12257 ± 742 ng·h/mL
same,theophylline AUC(0-∞),CYP1a2,13565 ± 801 ng·h/mL
same,theophylline CLz/F,CYP1a2,"7,744.326 ± 56.253 mL/h/kg"
same,theophylline Cmax,CYP1a2,1138 ± 201 ng/mL
same,theophylline t1/2 z,CYP1a2,2.509 ± 0.436 h
